Biological target: T1, SH (O2-tolerant, NAD+-reducing hydrogenase, soluble hydrogenase) (Cupriavidus necator, UniProt P22317)
T1 construct: gene hoxF; purified; immobilised on Amberlite FP54; hydrogenase and diaphorase modules; with NAD-reducing hydrogenase HoxS subunit gamma; NAD-reducing hydrogenase HoxS subunit delta; NAD-reducing hydrogenase HoxS subunit beta; NAD-reducing hydrogenase subunit HoxI
Assay: on-line H2 consumption and NADH evolution
Format: biochemical
Settings: immobilised enzyme in cascade; 2 mM NAD+, H2, Tris-HCl 50 mM pD 8.0, 22 °C

T1 sequence (P22317 whole entry): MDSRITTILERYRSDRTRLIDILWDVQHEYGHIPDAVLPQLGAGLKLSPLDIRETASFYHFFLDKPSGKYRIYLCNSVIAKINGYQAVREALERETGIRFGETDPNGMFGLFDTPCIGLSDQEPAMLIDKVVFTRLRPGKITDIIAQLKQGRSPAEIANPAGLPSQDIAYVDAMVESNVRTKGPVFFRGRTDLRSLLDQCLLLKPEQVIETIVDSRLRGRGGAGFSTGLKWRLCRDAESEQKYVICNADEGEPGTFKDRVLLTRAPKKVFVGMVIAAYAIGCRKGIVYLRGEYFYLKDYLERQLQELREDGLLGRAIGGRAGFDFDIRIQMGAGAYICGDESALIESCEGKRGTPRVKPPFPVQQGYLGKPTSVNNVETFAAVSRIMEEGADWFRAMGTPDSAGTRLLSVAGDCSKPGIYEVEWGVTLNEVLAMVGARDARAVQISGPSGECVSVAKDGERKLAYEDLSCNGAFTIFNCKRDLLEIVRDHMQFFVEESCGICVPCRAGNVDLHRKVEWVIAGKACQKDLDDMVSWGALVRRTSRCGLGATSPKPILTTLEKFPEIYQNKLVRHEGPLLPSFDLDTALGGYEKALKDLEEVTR
T1 sequence (P22318 2-234 partner): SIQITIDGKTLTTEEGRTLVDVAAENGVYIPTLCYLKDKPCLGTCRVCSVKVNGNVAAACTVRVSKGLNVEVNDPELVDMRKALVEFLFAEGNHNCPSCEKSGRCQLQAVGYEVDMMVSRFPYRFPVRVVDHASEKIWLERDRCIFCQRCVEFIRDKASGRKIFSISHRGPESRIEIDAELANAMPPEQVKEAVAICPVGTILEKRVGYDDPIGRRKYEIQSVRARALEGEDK
T1 sequence (P22319 whole entry partner): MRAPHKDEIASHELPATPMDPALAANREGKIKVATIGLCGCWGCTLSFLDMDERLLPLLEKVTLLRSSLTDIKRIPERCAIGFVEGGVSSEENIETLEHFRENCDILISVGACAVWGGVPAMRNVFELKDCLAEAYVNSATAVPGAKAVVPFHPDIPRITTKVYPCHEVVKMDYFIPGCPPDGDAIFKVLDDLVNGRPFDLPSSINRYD
T1 sequence (P22320 2-464 partner): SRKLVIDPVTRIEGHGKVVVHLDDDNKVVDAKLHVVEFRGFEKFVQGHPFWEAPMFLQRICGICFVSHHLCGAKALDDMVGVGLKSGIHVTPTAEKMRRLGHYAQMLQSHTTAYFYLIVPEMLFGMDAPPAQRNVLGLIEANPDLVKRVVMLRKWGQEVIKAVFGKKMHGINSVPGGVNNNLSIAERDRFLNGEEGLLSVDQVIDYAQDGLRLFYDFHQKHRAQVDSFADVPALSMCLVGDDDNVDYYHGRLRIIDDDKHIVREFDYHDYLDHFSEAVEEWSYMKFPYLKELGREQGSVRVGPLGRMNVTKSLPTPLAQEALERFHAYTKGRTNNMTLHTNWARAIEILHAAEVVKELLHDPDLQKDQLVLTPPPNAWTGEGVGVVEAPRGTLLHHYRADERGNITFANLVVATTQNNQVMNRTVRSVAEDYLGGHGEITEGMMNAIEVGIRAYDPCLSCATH

Structure (SMILES): NC(=O)c1ccc[n+]([C@@H]2O[C@H](COP(=O)(O)OP(=O)(O)OC[C@H]3O[C@@H](n4cnc5c(N)ncnc54)[C@H](O)[C@@H]3O)[C@@H](O)[C@H]2O)c1 [NAD^+]
- on-line H2 consumption and NADH evolution: consumption of H2 (A) and the evolution of NADH (C)

— article PMC7318245, “Powering Artificial Enzymatic Cascades with Electrical Energy” (Angewandte Chemie (International Ed. in English), 2020)
